Assays:
AMASP [1] = assay: Field test Brazil, pre-emergence, heavy clay soil (Example 1); format: in vivo; conditions: 95 days after treatment vs untreated plot, g/ha: Cpd A 150, Tebuthiuron 500, mix 500+150
Procedure: (§1) [0042] The following test was conducted in Brazil: Tebuthiuron (used as the commercial formulation “Combine™”, a suspension concentrate containing […] active ingredient) and 5-cyclopropyl-4-(2-methylsulfonyl-4-trifluoromethyl)benzoylisoxazole (isoxaflutole, hereafter referred to as Compound A), which was formulated as wettable granules, were sprayed alone and in tank mix combination (spray rate 300 l/ha) to a plot 5 meters by 3 meters pre-emergence of the weeds and ratoon sugarcane (varieties RB72 454 and […]). The soil was a heavy clay soil containing 1.8% organic matter, […] (pH 5.3) and had been sown on the same day as application with the weed species (the application was made to the ratoon cane about 90 days after cutting and before re-growth). Visual assessment was made 95 days after treatment in comparison with an untreated control plot. Two replicates were performed.

BRAPL [2] = assay: as above; format: in vivo; conditions: 95 days after treatment vs untreated plot, g/ha: Cpd A 150, Tebuthiuron 500, mix 500+150
Procedure: as §1

DIGHO [3] = assay: as above; format: in vivo; conditions: 95 days after treatment vs untreated plot, g/ha: Cpd A 150, Tebuthiuron 500, mix 500+150
Procedure: as §1

ECHCG [4] = assay: as above; format: in vivo; conditions: 95 days after treatment vs untreated plot, g/ha: Cpd A 150, Tebuthiuron 500, mix 500+150
Procedure: as §1

ELEIN [5] = assay: as above; format: in vivo; conditions: 95 days after treatment vs untreated plot, g/ha: Cpd A 150, Tebuthiuron 500, mix 500+150
Procedure: as §1

PANMA = assay: as above; format: in vivo; conditions: 95 days after treatment vs untreated plot, g/ha: Cpd A 150, Tebuthiuron 500, mix 500+150
Procedure: as §1

SACOF RB68 5089 [6] = assay: Field test Brazil, crop effect, heavy clay soil (Example 1); format: in vivo, ratoon sugarcane
Procedure: as §1

SACOF RB72 454 [7] = assay: as above; format: in vivo, ratoon sugarcane
Procedure: as §1

AMASP [8] = assay: Field test Brazil, pre-emergence, light sandy soil (Example 2); format: in vivo; conditions: 95 days after treatment vs untreated plot, g/ha: Cpd A 150, Tebuthiuron 500, mix 500+150
Procedure: as §1
(§2) [0044] The following test was conducted in Brazil following the same procedure as described in Example 1 above but where the soil type was light sandy containing 1.8% organic matter, 82% sand and 13% clay (pH 5.3). Again, two replicates were performed.

BRAPL [9] = assay: as above; format: in vivo; conditions: 95 days after treatment vs untreated plot, g/ha: Cpd A 150, Tebuthiuron 500, mix 500+150
Procedure: as §1, §2

DIGHO [10] = assay: as above; format: in vivo; conditions: 95 days after treatment vs untreated plot, g/ha: Cpd A 150, Tebuthiuron 500, mix 500+150
Procedure: as §1, §2

ECHCG [11] = assay: as above; format: in vivo; conditions: 95 days after treatment vs untreated plot, g/ha: Cpd A 150, Tebuthiuron 500, mix 500+150
Procedure: as §1, §2

ELEIN [12] = assay: as above; format: in vivo; conditions: 95 days after treatment vs untreated plot, g/ha: Cpd A 150, Tebuthiuron 500, mix 500+150
Procedure: as §1, §2

SIDRH = assay: as above; format: in vivo; conditions: 95 days after treatment vs untreated plot, g/ha: Cpd A 150, Tebuthiuron 500, mix 500+150
Procedure: as §1, §2

SACOF RB68 5089 [13] = assay: Field test Brazil, crop effect, light sandy soil (Example 2); format: in vivo, ratoon sugarcane
Procedure: as §1, §2

SACOF RB72 454 [14] = assay: as above; format: in vivo, ratoon sugarcane
Procedure: as §1, §2

[15] = pre-emergence, 95 days after treatment vs untreated plot, heavy clay soil, g/ha: Cpd A 150, Tebuthiuron 500, mix 500+150
[16] = pre-emergence, 95 days after treatment vs untreated plot, light sandy soil, g/ha: Cpd A 150, Tebuthiuron 500, mix 500+150

| Compound | Visual assessment AMASP (AMASP [1]) | Visual assessment BRAPL (BRAPL [2]) | Visual assessment DIGHO (DIGHO [3]) | Visual assessment ECHCG (ECHCG [4]) | Visual assessment ELEIN (ELEIN [5]) | Visual assessment PANMA (PANMA) | Visual assessment SACOF RB68 5089 (crop) (SACOF RB68 5089 [6]; in vivo) | Visual assessment SACOF RB72 454 (crop) (SACOF RB72 454 [7]; in vivo) | Visual assessment AMASP (AMASP [8]) | Visual assessment BRAPL (BRAPL [9]) | Visual assessment DIGHO (DIGHO [10]) | Visual assessment ECHCG (ECHCG [11]) | Visual assessment ELEIN (ELEIN [12]) | Visual assessment SIDRH (SIDRH) | Visual assessment SACOF RB68 5089 (crop) (SACOF RB68 5089 [13]; in vivo) | Visual assessment SACOF RB72 454 (crop) (SACOF RB72 454 [14]; in vivo) | Visual assessment SACOF RB68 5089 (crop) (SACOF RB68 5089 [6]; [15]) | Visual assessment SACOF RB72 454 (crop) (SACOF RB72 454 [7]; [15]) | Visual assessment SACOF RB68 5089 (crop) (SACOF RB68 5089 [13]; [16]) | Visual assessment SACOF RB72 454 (crop) (SACOF RB72 454 [14]; [16]) |
| --- | --- | --- | --- | --- | --- | --- | --- | --- | --- | --- | --- | --- | --- | --- | --- | --- | --- | --- | --- | --- |
| CS(=O)(=O)c1cc(C(F)(F)F)ccc1C(=O)c1cnoc1C1CC1 [Cpd A, 5-cyclopropyl-4-(2-methylsulfonyl-4-trifluoromethyl)benzoylisoxazole] | 80 | 70 | 75 | 50 | 85 | 85 | 0 | 0 | 27.5 | 15 | 20 | 20 | 30 | 10 | 0 | 0 |  |  |  |  |
| CNC(=O)N(C)c1nnc(C(C)(C)C)s1 [Tebuthiuron] | 75 | 10 | 10 | 10 | 20 | 5 |  |  | 70 | 20 | 20 | 15 | 20 | 60 |  |  | 0 | 0 | 0 | 0 |

From US20010016560A1, “Herbicidal compositions” (priority 1998, published 2001)
